Series [1] concerns human c-mpl-Ba/F3 cell. In words: Mouse oral administration test: blood plasma after oral dosing added to the human c-mpl-Ba/F3 cell proliferation test system. The format is in vivo, male ICR mice. As to conditions: 3 mg/kg orally; for oral absorption: verbal conclusion from Table 1, mice; for Cell proliferation activity (%): male ICR mice, blood sampled 2 hours after administration, maximum activity of each test compound = 100%. The method, then: Test Example 2: Mouse Oral Administration Test 3 mg/kg of the test compound suspended in an aqueous solution of 0.5% methylcellulose was orally administered to male ICR mice. […] Table 1 Human c-mpl-Ba/F3 cell proliferation activity of […] after orally administering test compounds

In series [2] the test system is Human c-mpl-Ba/F3 cells. As to the kind of experiment: Cell proliferation test for human c-mpl-Ba/F3 cells (WST-1/1-methoxy PMS absorbance). As to conditions: based on the maximum cell proliferation activity of rhTPO being 100%. As to the method:
Test Example 1 Cell Proliferation Test for Human c-mpl-Ba/F3 Cells
Human c-mpl-Ba/F3 cells at a concentration of 2 x 10^5 cells/mL were cultured at 37 degree C on a 96 well microplate using RPMI 1640 culture medium (100 microliter/ well) containing 10% fetal calf serum to which various concentrations of the test compound was added. After 24 hours from the start of culturing, 10 microliter/well of WST-1/1-methoxy PMS (cell measuring kit, Dojin) was added. Immediately after the addition and two hours later, the A450/A650 absorbance was measured using a microplate reader (Model 3350, Bio-Rad), and the increase in absorbance after 2 hours was interpreted to represent the proliferation activity of each test compound.
In general terms: Tetrazolium dyes change colour on reduction, which living cells bring about.

Series [3] relates to Ba/F3 cells where c-mpl was not introduced. In words: Cell proliferation test with Ba/F3 cells where c-mpl was not introduced (counter-test). The format is cell-based.

Counter-ions that a name gives are not always drawn.

With `O=C(Nc1nc(-c2cc(Cl)cs2)c(N2CCN(C3CCCCC3)CC2)s1)c1cnc(N2CCC(C(=O)O)CC2)c(Cl)c1` [listing 1 of 2 here], the oral absorption result in series [1] is “excellent oral absorption”. In series [2], `O=C(Nc1nc(-c2cc(Cl)cs2)c(N2CCN(C3CCCCC3)CC2)s1)c1cnc(N2CCC(C(=O)O)CC2)c(Cl)c1` [listing 2 of 2 here] showed an Emax of 102%. The cell proliferation effect entry in series [3] is “a cell proliferation effect was not observed”.

Consider `O=C(Nc1nc(-c2cc(Cl)cs2)c(N2CCN(C3CCCCC3)CC2)s1)c1cnc(N2CCC(C(=O)O)CC2)c(Cl)c1.O=C(O)/C=C\C(=O)O` [1-(3-chloro-5-{ [4-(4-chlorothiophen-2-yl)-5-(4-cyclohexylpiperazin-1-yl)thiazol-2-yl]carbamoyl}pyridin-2-yl) piperidine-4-carboxylic acid maleic acid salt], for which, in series [1] (0.3% blood plasma concentration), the “Cell proliferation activity (%)” value is reported as below 10%. Besides, in series [1] (listed as compound X maleic acid B type crystals, 3 mg/kg), the oral absorption result was “inferior oral absorption”.

Regarding `O=C(Nc1nc(-c2cc(Cl)cs2)c(N2CCN(C3CCCCC3)CC2)s1)c1cnc(N2CCC(C(=O)O)CC2)c(Cl)c1.O=C(O)/C=C\C(=O)O` [1-(3-chloro-5-{[4-(4-chlorothiophen-2-yl)-5-(4-cyclohexylpiperazin-1-yl)thiazol-2-yl]carbamoyl}pyridin-2-yl) piperidine-4-carboxylic acid maleic acid salt], the oral absorption result in series [1] (listed as compound X maleic acid salt C type crystal, 3 mg/kg) is listed as “excellent oral absorption”.

Take `O=C(Nc1nc(-c2cc(Cl)cs2)c(N2CCN(C3CCCCC3)CC2)s1)c1cnc(N2CCC(C(=O)O)CC2)c(Cl)c1` [Compound X hydrochloride, reference compound]: the “Cell proliferation activity (%)” value in series [1] (10% blood plasma concentration) worked out at 34%.

The values are drawn from patent EP3246325A1, “2-ACYLAMINOTHIAZOLE COMPOUND CRYSTALS” (priority 2011, dated 2013).
